Some test systems named below: ACHN; COLO 205; EKVX; HCT-15; HL-60; K562; KM12; M14; Malme-3M; NCI-H522; OVCAR-4; OVCAR-8; PC-3; SF-268; SF-295; SK-MEL-28; SW-620; SK-MEL-5; SK-OV-3; SNB-75.
Common to all, as to assay: inhibition of tumour cell growth, NCI panel, 48 h

Each structure is given as a SMILES string.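 Grown in 96-well plates, cells were treated for 48 hours with each compound at five concentrations. Insufficient inhibition: endpoint recorded as highest concentration tested. GI50: concentration for 50% inhibition of growth.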 Activity calls are given as the source filed them. Cut-off read from the data, not from the text of the source: active = GI50 up to about 1.1 µM and inactive = higher. A value given as a limit tells only on which side of the number the result lay.

Consider `CC(=O)Oc1ccc2cc(-c3ccc(OC(C)=O)c(OC(C)=O)c3)c(=O)oc2c1`, for which the GI50 with ACHN was > 100 µM (inactive); with COLO 205, > 100 µM (inactive); in the test with EKVX, 30.4 µM (inactive); in the test with HCT-15, greater than 100 µM; with HL-60 it was 30.5 µM (inactive); in the test on K562, 49.8 µM (inactive). The GI50 in the test on KM12 is 32.8 µM (inactive); in the test on M14, 74.8 µM (inactive); with Malme-3M it was > 100 µM (inactive); in the test with NCI-H522 it was 44.4 µM (inactive); in the test with OVCAR-4 it was 27.1 µM (inactive); with OVCAR-8, > 100 µM (inactive). The GI50 in the test with PC-3 was 84.5 µM (inactive); in the test on SF-268, 63.2 µM (inactive); with SF-295, 52.8 µM (inactive); in the test with SK-MEL-28, 81.7 µM (inactive); in the test on SW-620, > 100 µM (inactive).

For `OC(c1ccc(-c2ccccc2)cc1)(c1ccc(-c2ccccc2)cc1)c1ccc(-c2ccccc2)cc1`, the GI50 with ACHN is > 100 µM (inactive); in the test on COLO 205, > 100 µM (inactive); in the test on EKVX, > 100 µM (inactive); in the test on HCT-15, 4.56 µM; with HL-60, > 10 µM (inactive); with K562, > 100 µM (inactive). Further, the GI50 is > 100 µM (inactive) with KM12; 52.7 µM (inactive) in the test on M14; > 100 µM (inactive) in the test on NCI-H522; > 100 µM (inactive) in the test with OVCAR-4; > 100 µM (inactive) with OVCAR-8; > 100 µM (inactive) in the test with PC-3. Moreover, the GI50 in the test on SF-268, in the test with SF-295, with SK-MEL-28, with SK-MEL-5 and with SK-OV-3 was > 100 µM (inactive) throughout.

As for `COC(=O)C1=C(C(=O)OC)C(C(=O)c2ccccc2)N2N=C(c3ccc(Cl)cc3)C=CC12` (stereo not given), the GI50 in the test with ACHN was > 100 µM (inactive); in the test with COLO 205 it was > 100 µM (inactive); in the test with EKVX, 8.81 µM (inactive); in the test on HCT-15, 9.62 µM; in the test with HL-60 it was 3.85 µM (inactive); in the test with K562 it was 30.3 µM (inactive). The GI50 is 13.1 µM (inactive) in the test on KM12; > 100 µM (inactive) in the test on M14; 11.2 µM (inactive) in the test on Malme-3M; 5.07 µM (inactive) in the test with NCI-H522; 19.2 µM (inactive) in the test on OVCAR-4; 12.4 µM (inactive) in the test with OVCAR-8. In addition, the GI50 was 9.82 µM (inactive) in the test on PC-3; 6.55 µM (inactive) with SF-268; 44.7 µM (inactive) with SF-295; > 100 µM (inactive) with SK-MEL-28; 9.23 µM (inactive) in the test with SK-MEL-5; > 100 µM (inactive) in the test on SK-OV-3. In addition, the GI50 in the test with SW-620 is > 100 µM (inactive).

`O=C(CN1C(=O)CC(c2ccccc2)(c2ccccc2)C1=O)N1CCN(CCO)CC1`: the GI50 with ACHN was > 100 µM (inactive); in the test on COLO 205, > 100 µM (inactive); in the test on EKVX it was > 100 µM (inactive); in the test with HCT-15, greater than 100 µM; in the test with K562 it was > 100 µM (inactive); with KM12, > 100 µM (inactive). Also, the GI50 with M14, with NCI-H522, in the test on OVCAR-4, in the test with OVCAR-8, in the test with PC-3 and in the test with SF-268 was > 100 µM (inactive) each time. Also, the GI50 in the test with SF-295, in the test with SK-MEL-28, in the test on SK-MEL-5, with SK-OV-3, in the test with SNB-75 and in the test on SW-620 was > 100 µM (inactive) throughout.

Regarding `CCOC(=O)N1[C@@H]2CCC[C@@H]2C(=O)[C@@H]2CCC[C@@H]21`, the GI50 in the test on ACHN is > 100 µM (inactive); in the test on COLO 205, > 100 µM (inactive); with HCT-15, greater than 100 µM; in the test on HL-60 it was > 100 µM (inactive); in the test on K562 it was > 100 µM (inactive); in the test with KM12, > 100 µM (inactive). Besides, the GI50 in the test with M14, in the test with OVCAR-4, with OVCAR-8, with PC-3, in the test with SF-268 and in the test with SK-MEL-28 was > 100 µM (inactive) throughout. Further, the GI50 with SK-MEL-5, with SK-OV-3, with SNB-75 and in the test on SW-620 was > 100 µM (inactive) throughout.

On to `O=C(CN1CCCCC1)c1ccc2[nH]c(=O)oc2c1`, for which the GI50 in the test on ACHN is > 100 µM (inactive); in the test with COLO 205 it was > 100 µM (inactive); in the test on EKVX, > 100 µM (inactive); in the test on HCT-15, greater than 100 µM; with HL-60, > 100 µM (inactive); with K562, > 100 µM (inactive). In addition, the GI50 in the test with KM12, in the test with M14, in the test on Malme-3M, in the test on OVCAR-8, in the test with PC-3 and in the test with SF-268 was > 100 µM (inactive) in each case. Also, the GI50 was > 100 µM (inactive) in the test on SF-295; > 100 µM (inactive) in the test on SK-MEL-28; > 100 µM (inactive) in the test on SK-MEL-5; > 100 µM (inactive) in the test with SK-OV-3; 0.957 µM (active) with SNB-75; > 100 µM (inactive) in the test with SW-620.

Take `O=C(NC1(C(=O)O)CCCC1)c1ccccc1`: the GI50 is > 100 µM (inactive) in the test with ACHN; > 100 µM (inactive) with COLO 205; > 100 µM (inactive) in the test on EKVX; greater than 100 µM in the test on HCT-15; > 100 µM (inactive) in the test on HL-60; > 100 µM (inactive) with K562. In addition, the GI50 with KM12, in the test with M14, in the test with NCI-H522, in the test with OVCAR-8, in the test on PC-3 and with SF-268 was > 100 µM (inactive) in each case. Moreover, the GI50 in the test with SF-295, in the test on SK-MEL-28, in the test on SK-MEL-5, in the test on SK-OV-3 and in the test with SW-620 was > 100 µM (inactive) each time.

Regarding `O=C(Nc1ccc(Cl)cc1)c1cc(S(=O)(=O)Nc2nnc3c(Cl)cc(C(F)(F)F)cn23)c(S)cc1Cl`, the GI50 with ACHN is > 100 µM (inactive); in the test on COLO 205, > 100 µM (inactive); with EKVX, > 100 µM (inactive); in the test with HCT-15, greater than 100 µM; in the test on HL-60 it was > 100 µM (inactive); with K562, > 100 µM (inactive). For the same molecule, the GI50 in the test with KM12 was 50.4 µM (inactive); in the test on M14, > 100 µM (inactive); in the test on Malme-3M, > 100 µM (inactive); in the test on NCI-H522, 80 µM (inactive); in the test with OVCAR-4, > 100 µM (inactive); in the test on OVCAR-8 it was > 100 µM (inactive). Further, the GI50 in the test with PC-3 was 83 µM (inactive); with SF-268, 70 µM (inactive); in the test on SF-295, 44.6 µM (inactive); in the test on SK-MEL-28, > 100 µM (inactive); with SK-MEL-5 it was 96.4 µM (inactive); with SK-OV-3, 41.9 µM (inactive).

As to `O=C1/C(=c2\s/c(=C\c3ccccc3)c(=O)n2-c2ccccc2)SC(=S)N1c1ccccc1`, the GI50 was 22.3 µM (inactive) with ACHN; 63.5 µM (inactive) with COLO 205; 35.6 µM (inactive) with EKVX; greater than 100 µM with HCT-15; > 100 µM (inactive) with HL-60; 47.2 µM (inactive) in the test on K562. In addition, the GI50 with KM12 is 71.8 µM (inactive); with M14 it was > 100 µM (inactive); with Malme-3M, 28.7 µM (inactive); with OVCAR-4, 29.4 µM (inactive); in the test with OVCAR-8 it was 82.6 µM (inactive); in the test with PC-3 it was 55 µM (inactive). In addition, the GI50 in the test with SF-268 is 41.8 µM (inactive); in the test with SF-295, 30.3 µM (inactive); in the test on SK-MEL-28, 63.1 µM (inactive); in the test with SK-MEL-5, 53.2 µM (inactive); with SK-OV-3, 21.9 µM (inactive); in the test on SNB-75 it was 19.4 µM (inactive). In addition, the GI50 in the test with SW-620 is 93.3 µM (inactive).

`COC1=C2C[C@@H](C)C[C@@H](OC)[C@@H](O)[C@H](C)/C=C(\C)[C@@H](OC(N)=O)[C@H](OC)/C=C\C=C(/C)C(=O)NC(=CC1=O)C2=O`: the GI50 in the test on COLO 205 is 0.0116 µM (active); in the test with EKVX, 6.56 µM (inactive); with HCT-15, 0.265 µM; in the test with HL-60, 0.0132 µM (active); with K562, 0.0115 µM (active); with KM12, 0.455 µM (active). Besides, the GI50 in the test on M14 was 0.106 µM (active); in the test on Malme-3M, 0.044 µM (active); with NCI-H522, 0.036 µM (active); with OVCAR-8 it was 0.0614 µM (active); in the test on PC-3 it was 0.122 µM (active); with SF-268, 1.01 µM (active). Further, the GI50 was 9.38 µM (inactive) in the test with SF-295; 0.113 µM (active) in the test with SK-MEL-28; 0.678 µM (active) in the test on SK-MEL-5; 1.04 µM (active) with SK-OV-3; 0.0127 µM (active) with SW-620.

Turning to `CCOC(=O)NC(Nc1ncn(C(NC(=O)OCC)(C(F)(F)F)C(F)(F)F)n1)(C(F)(F)F)C(F)(F)F`, the GI50 with ACHN is > 100 µM (inactive); in the test with COLO 205 it was > 100 µM (inactive); with EKVX, > 100 µM (inactive); in the test with HCT-15, greater than 100 µM; in the test on HL-60, > 100 µM (inactive); in the test on K562, > 100 µM (inactive). Besides, the GI50 with KM12, in the test on M14, in the test with Malme-3M, in the test with OVCAR-4, in the test on OVCAR-8 and with PC-3 was > 100 µM (inactive) in each case. Besides, the GI50 with SF-268, with SF-295, in the test with SK-MEL-28, in the test on SK-MEL-5, with SK-OV-3 and in the test with SNB-75 was > 100 µM (inactive) in each case. The GI50 in the test with SW-620 was > 100 µM (inactive).

The values are drawn from ChEMBL document CHEMBL1201862, “PubChem BioAssay data set” (2004).
